Experimental data reported in a melting point compilation (Tetko et al.; mined from patent text by program, amines drawn as free bases though some values may be those of a salt).

`CC(C)c1ncc(C(=O)O)nc1C(C)C` gave a melting point of 128 to 130 °C. Compound `C=C(c1ccc(-c2ncnn2COCC)cc1)C(O)(Cn1cncn1)c1ccc(F)cc1F` (stereo unspecified) has a melting point of 160 to 162 °C. Work on `CC(C)(C)C(OCc1ccc(Cl)cc1)c1cncnc1` (stereo unspecified) yielded a melting point of 77 to 78.5 °C. Work on `Cc1cc(C)cc(NC(=O)Cc2ccc(OC3(C(=O)O)CCOC3C)cc2)c1` (racemic) yielded a melting point of 164 to 167 °C. In the case of `CC(C)(C)c1cc(CN)cc(C(C)(C)C)c1O`, the melting point is reported as 159 °C. `Cc1cc(C)cc(Sc2c(C(C)C)nc(CCOC(N)=O)n2C)c1` gave a melting point of 138 to 140 °C. In the case of `CCCN(CCC)C(=O)Cn1c(-c2cccc(Br)c2)nc2cccnc21`, the melting point is reported as 125 to 127 °C. `CS(=O)(=O)C(=C1CN(C(c2ccccc2)c2ccccc2)C1)c1cccc(C#N)c1` showed a melting point of 152 °C. Work on `CC(=O)Oc1c(Cl)ccc2c(-c3ccccc3)c(Sc3ccccc3)c(Sc3ccccc3)c(-c3ccccc3)c12` yielded a melting point of 138 to 140 °C. Work on `O=C(NCC1CCCO1)c1cccc(-c2ccc3c(c2)C(c2cc(Cl)ccc2Cl)CC3)c1` (stereo unspecified) yielded a melting point of 122 °C. For `Oc1ccc(C=Cc2ccncc2)cc1`, the melting point was 272 to 275 °C. `COc1cnc2sc(SCc3ccccc3)nn2c1=O` gave a melting point of 145 to 147 °C. With `CC(C)CNC(=S)Nc1cccc(NC(=O)Nc2ccc(Cl)cc2)c1` the melting point was 195 to 196 °C. For `CSc1ccc(-c2nn(Cc3ccccc3)c(=S)cc2-c2ccc(Cl)cc2)cc1`, the melting point was 103 °C. `CCOC(=O)/C=C/c1ccc(OCCOC)cc1OS(=O)(=O)C(F)(F)F` showed a melting point of 37.1 to 37.3 °C. In the case of `CC(C)(C)OCC(NC(=O)c1ccccc1SSc1ccccc1C(=O)NC(COC(C)(C)C)C(=O)O)C(=O)O` (stereo unspecified), the melting point is reported as 206 to 207 °C. With `C[C@]1(COc2ccc(N3CCC(Cc4ccc(Cl)cc4)CC3)cc2)Cn2cc([N+](=O)[O-])nc2O1` the melting point was 207 to 211 °C. Compound `CC(C)N(C(=O)n1nc(Oc2ccc(C(F)(F)F)cc2[N+](=O)[O-])cc1C(F)(F)F)C(C)C` has a melting point of 118 to 120 °C. With `CCC(=O)NCC1CC1c1cccc2nc(C)nn12` (stereo unspecified) the melting point was 118 to 119 °C. For `CC(=O)c1cc(Cl)ccc1Nc1ccc(OCc2ccccc2)cc1`, the melting point was 74 to 75 °C. Work on `Clc1ccc(Oc2cncc(Cl)n2)cc1` yielded a melting point of 92 to 93 °C. With `CC(=O)OC1CSC(Oc2ccc(-c3cc4ccccc4o3)nc2)C(OC(C)=O)C1OC(C)=O` (stereo unspecified) the melting point was 179 °C. Compound `CCOC(=O)c1sc2cc(OCc3ccccc3)ccc2c1Cl` has a melting point of 98 to 100 °C. `CCOC(=O)c1cn(Cc2ccccc2)nc1OCc1ccc(OCc2nc(-c3ccco3)oc2C)c(OCc2ccccc2)c1` showed a melting point of 127 to 128 °C. Work on `COC(Cn1cncn1)(c1ccc(Cl)cc1)C(C)(C)C1CC1` (stereo unspecified) yielded a melting point of 87 to 89 °C. `CCc1nc2c(cnn2CC)c(NC2CCOCC2)c1CNC(=O)c1cccc(C(=O)NCc2cc(Cl)cc(Br)c2)c1` showed a melting point of 109 to 112 °C. In the case of `CCC(CC)Nc1cc(C)nc(Oc2c(C)cc(Cl)cc2C)c1N`, the melting point is reported as 72 to 74 °C. `CCC(C)(C)OC(=O)NC(C)(Cc1c[nH]c2ccccc12)C(=O)NC(Cc1cccs1)C(N)=O` (stereo unspecified) showed a melting point of 187 to 192 °C. With `CN(C)c1ccc(C2(c3ccc(N(C)C)cc3N(C)C)OC(=O)c3ccccc32)c(N(C)C)c1` the melting point was 186 to 188 °C. Work on `CN1CCC2(CCc3cc4ccccc4n3C2)C1` (stereo unspecified) yielded a melting point of 55 to 58 °C. With `O=c1ncn(Cc2ccc(Cl)cc2)c2cc(-c3ccc(OCc4cccnc4)cc3)sc12` the melting point was 255 to 257 °C. Compound `Cc1ccccc1CC(=NC#N)NC(NC(=O)Cc1ccc2cccnc2c1)C(C)(C)C` (stereo unspecified) has a melting point of 165 to 166 °C. In the case of `CSCC(=O)Nc1cc(SCC(C)C)ccc1[N+](=O)[O-]`, the melting point is reported as 73 to 74 °C. For `C#Cc1cccc(Nc2ncnc3ccc(NC(=O)c4ccc(C(=O)Nc5ccccc5N)nc4)cc23)c1`, the melting point was 213 to 216 °C. `COc1ccc(S(=O)(=O)N(Cc2ccccc2)c2c(C(=O)O)cnc3c2c(C)nn3C)cc1` gave a melting point of 165 to 167 °C. `CNc1ncc([N+](=O)[O-])c(Cl)n1` showed a melting point of 172 to 173 °C. For `CN(C)C=NC(=O)c1cc2c(cn1)[nH]c1ccccc12`, the melting point was 254 to 257 °C. In the case of `COc1cc2c(cc1C)CCC=C2c1ncc[nH]1`, the melting point is reported as 197 to 229 °C. For `CC1(C)OCCN1c1nc(-c2ccc(C#N)cc2)cs1`, the melting point was 108 to 111 °C. Compound `CC=CCn1c(=O)n(C2OC(CO)C(O)C2O)c2nc(N)[nH]c(=O)c21` (stereo unspecified) has a melting point of 167 to 170 °C. In the case of `CCCC1=C(O)C(C(=O)CC)C(=O)OC1=O` (stereo unspecified), the melting point is reported as 149 to 150 °C. In the case of `O=C(c1ccccc1)c1cncc(Br)c1`, the melting point is reported as 66 to 68 °C. `Fc1cccc(COc2ccc(Nc3ncnc4sc(C#Cc5ncccn5)cc34)cc2Cl)c1` gave a melting point of 225 °C. Work on `CCC(CC)NCc1cnc2c(C)c(NC(=O)c3ccc(OC[C@@H]4CCCO4)cc3)ccc2c1` yielded a melting point of 113 to 115 °C. With `Cc1c(C)c2c(c(C)c1NC=O)CC(C)(CSc1nc3ccccc3s1)O2` (stereo unspecified) the melting point was 190 to 192 °C. `C=CCn1c(CCl)nc(C(C)C)c1Sc1cccc(Cl)c1` showed a melting point of 84 to 86 °C. For `[N-]=[N+]=C(C(=O)CCc1ccc(S(=O)(=O)Cl)cc1)C(=O)CCc1ccc(S(=O)(=O)Cl)cc1`, the melting point was 121 to 122 °C. Compound `CN(C)c1ccc(CN2C(=O)C3(COc4cc5c(cc43)OCCO5)c3ccccc32)cn1` (stereo unspecified) has a melting point of 93 to 95 °C. Compound `Cc1nc(-c2cccnc2)cs1` has a melting point of 81 °C. `CC(=CC(=O)Nc1ccccc1OCCCC(=O)O)c1ccc2c(ccn2C(c2ccccc2)c2ccccc2)c1` gave a melting point of 158 to 162 °C. In the case of `Nc1nc2c(ncn2COCCOC=O)c(=O)[nH]1`, the melting point is reported as 225 to 227 °C. Compound `CC(C)C[C@H](NC(=O)OCc1ccccn1)C(=O)N[C@@H](C(C)C)[C@H](O)c1c(-c2ccccc2)c1=O` has a melting point of 52 to 59 °C. With `C=CCC(Cc1ccc(OC)c(OCCc2ccccc2)c1)NC(=O)OC(C)(C)C` (stereo unspecified) the melting point was 94.5 to 95.3 °C. In the case of `CCC(C(=O)O)N(C(=O)c1cn(-c2cccc(C(F)(F)F)c2)nc1C)c1ccc(OCC(C)(C)C)c(C#N)c1` (stereo unspecified), the melting point is reported as 156 to 158 °C. In the case of `O=Cc1cccn1Cc1ccccc1[N+](=O)[O-]`, the melting point is reported as 128 to 132 °C. For `O=C1c2cc(Cl)c(Cl)cc2C(=O)N1CCN1CCC(c2noc3cc(F)ccc23)CC1`, the melting point was 132 to 134 °C. In the case of `Cc1nc(-c2ccc(-c3cscn3)c(C)c2)c(-c2ccc(S(C)(=O)=O)c(F)c2)o1`, the melting point is reported as 177 to 178 °C. For `OC1CSC(Oc2cncc(-c3cc4ccccc4s3)c2)C(O)C1O` (stereo unspecified), the melting point was 235 °C. Work on `O=C(O)CCCCCCCCCCc1ccc(Br)cc1` yielded a melting point of 91 °C. Work on `COCCc1sc2ncnc(N)c2c1-c1ccc(N(C(N)=O)c2ccccc2C)cc1` yielded a melting point of 217 to 219 °C. In the case of `O=C(O)CN1C(=O)[C@@H](N[C@@H](CCC2CCCCC2)C(=O)O)CSc2ccccc21`, the melting point is reported as 207 to 210 °C. `COc1cccc(NC(=O)N[C@H]2C[C@H](C(=O)O)Nc3cc(Cl)cc(Cl)c32)c1` (relative stereo) gave a melting point of 181 to 183 °C. For `COc1ccccc1CC(=O)N1C[C@H]2C(c3ccccc3OC)=CCC(c3ccccc3)(c3ccccc3)[C@H]2C1`, the melting point was 142 °C. `O=C1CCC(c2ccccc2)(c2ccccc2)C2CN(C(Cc3ccccc3)=NCc3ccco3)CC12` (stereo unspecified) showed a melting point of 128 °C. For `CCCCN(Cc1ccc(-c2ccccc2-c2nnnn2C(c2ccccc2)(c2ccccc2)c2ccccc2)cc1)c1nc(C)ncc1C(=O)OCC`, the melting point was 130 to 132 °C. With `CSCCCCCn1c(CCC(C)=O)nc2c(N)nc3ccccc3c21` the melting point was 179 to 181 °C.
